Measurements taken from patent US10774121B2, “Methods and compositions for treating neurodegenerative disorders and Alzheimer's Disease and improving normal memory” (The Regents of the University of California, priority 2006, dated 2020).
“Also recorded” adds a separate entry of the source.

Experiments:
Aβ production = assay: ELISA of Aβ produced in β-APP-only:PS-1-only co-culture extracts; type: cell-based, mouse; details: synthetic peptides 0-3 μM added at the time of the co-culture
Protocol: Co-cultures of β-APP-only and PS-1-only cells were carried out in the presence and absence of Peptide 1-80 (0-3 μM). ^35S-GTPγS assays were carried out on extracts as a measure of G-protein activation. The Aβ produced in these co-culture extracts was determined by ELISA.
ES-derived mouse cells (PS-1^−/−; PS-2^−/−) that expressed only small amounts of endogenous β-APP but no PS, were transiently transfected with cDNA for human β-APP to produce cells expressing excess human β-APP over mouse β-APP, and no PS-1 or PS-2 (β-APP-only cells). Embryonic (E18) mouse primary fibroblasts derived from β-APP-null mice, expressing only small amounts of endogenous PS-1 and PS-2, were transfected with cDNAs for human PS-1 to produce cells expressing excess human over mouse PS-1 but no β-APP (PS-1-only cells). The minigenes were co-transfected with PS-1 in the PS-only APP−/− fibroblasts to inhibit the endogenous mouse Gα under investigation in those cells. PS−/− ES cells were separately transfected with human β-APP cDNA (β-APP only cells) and the two types of cells were co-cultured for 24 hours. Cells were harvested and detergent-buffer extracts of the co-cultures were prepared. Determination of [^35S]GTPγS incorporation in these cultures was carried out in the presence and absence of each minigene: Aliquots each containing 100 μg total protein were reacted with ^35S-GTPγS and immunoprecipitation of each ^35S-GTPγS-treated extract was carried out with antibodies directed to the particular Gα under investigation. Specificity of binding of a particular Gα to PS-1 was established by blocking of GTPγS incorporation in the presence of the specific minigene inhibitor.
Co-culture of β-APP-only with PS-1-only cells was carried out as described above.
ELISA for the production of Aβ1-40 was carried out using sandwich ELISA kits (Biosource).

Gαs = target: T1, Gαs (Rattus norvegicus, UniProt P63095); assay: Stimulation of 35S-GTPγS binding to Gs by PS-1 cytoplasmic peptides in rat hippocampal membrane preparations; type: biochemical; details: peptides 200 μM, rat hippocampal membranes
T1 construct: tissue Applied Cell Science, Rockville, Md; host or cells: rat hippocampal membranes, solubilized in CHAPS buffer
T1 sequence (P63095 whole entry): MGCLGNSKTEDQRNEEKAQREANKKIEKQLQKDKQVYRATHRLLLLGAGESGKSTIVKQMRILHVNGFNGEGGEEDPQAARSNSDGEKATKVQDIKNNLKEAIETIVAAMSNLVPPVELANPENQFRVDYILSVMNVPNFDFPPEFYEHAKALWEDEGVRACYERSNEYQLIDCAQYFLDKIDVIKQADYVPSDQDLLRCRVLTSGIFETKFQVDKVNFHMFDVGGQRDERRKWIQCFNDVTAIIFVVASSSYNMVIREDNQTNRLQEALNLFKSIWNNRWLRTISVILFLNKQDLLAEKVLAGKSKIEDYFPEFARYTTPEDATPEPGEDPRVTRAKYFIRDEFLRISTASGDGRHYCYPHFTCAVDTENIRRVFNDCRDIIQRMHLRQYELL
Protocol: (§1) The autonomous activation of G-proteins Gαo, Gαq and Gαs by oligopeptides corresponding to cytoplasmic loops 1, 2, 3 and the COOH tail of human PS-1 in the 7-TM PS model were examined. The peptides were individually tested for their ability to stimulate ^35S-GTPγS binding to each G-protein in rat hippocampal membrane preparations.
(§2) Rat hippocampal membranes (Applied Cell Science, Rockville, Md.) were solubilized in CHAPs buffer.
(§3) Peptides (200 μM) were incubated without pre-treatment with solubilized rat hippocampal membranes (50 μg) in the ^35S reaction mixture. Accumulation of γ-S GTP the ^35S-GTPγS was determined after immunoprecipitation with the specific anti-G Ab.

Gαo [1] = target: T2, Gαo (Rattus norvegicus, UniProt P59215); assay: Stimulation of 35S-GTPγS binding to Go by PS-1 cytoplasmic peptides in rat hippocampal membrane preparations; type: biochemical; details: peptides 200 μM; for stimulation of 35S-GTPγS binding to Go: rat hippocampal membranes
T2 construct: tissue Applied Cell Science, Rockville, Md; host or cells: rat hippocampal membranes, solubilized in CHAPS buffer
T2 sequence (P59215 whole entry): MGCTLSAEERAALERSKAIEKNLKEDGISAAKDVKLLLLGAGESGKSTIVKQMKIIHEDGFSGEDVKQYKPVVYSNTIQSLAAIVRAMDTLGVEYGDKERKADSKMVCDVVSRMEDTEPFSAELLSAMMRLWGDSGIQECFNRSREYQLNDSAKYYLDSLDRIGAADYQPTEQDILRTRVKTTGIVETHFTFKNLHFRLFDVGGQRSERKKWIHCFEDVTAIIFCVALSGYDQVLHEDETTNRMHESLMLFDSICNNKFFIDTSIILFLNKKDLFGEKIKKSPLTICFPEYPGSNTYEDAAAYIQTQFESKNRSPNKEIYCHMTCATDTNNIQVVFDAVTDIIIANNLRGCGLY
Source text: To provide evidence that the GoA binding observed in FIG. 5A was directly to PS-1, and not to a co-immunoprecipitated, PS-associated protein the autonomous activation of Go by synthetic peptide fragments corresponding to cytoplasmic loops 1, 2, 3 and the carboxyl tail of PS-1 (in the 7-TM PS model) were investigated (see FIGS. 20B and C and Table 1). The peptides were individually tested for their ability to stimulate ^35S-GTPγS binding to Go in rat hippocampal membrane preparations.
as §1, §2, §3

Gαq = target: T3, Gαq (Rattus norvegicus, UniProt P82471); assay: Stimulation of 35S-GTPγS binding to Gq by PS-1 cytoplasmic peptides in rat hippocampal membrane preparations; type: biochemical; details: peptides 200 μM, rat hippocampal membranes
T3 sequence (P82471 1-359): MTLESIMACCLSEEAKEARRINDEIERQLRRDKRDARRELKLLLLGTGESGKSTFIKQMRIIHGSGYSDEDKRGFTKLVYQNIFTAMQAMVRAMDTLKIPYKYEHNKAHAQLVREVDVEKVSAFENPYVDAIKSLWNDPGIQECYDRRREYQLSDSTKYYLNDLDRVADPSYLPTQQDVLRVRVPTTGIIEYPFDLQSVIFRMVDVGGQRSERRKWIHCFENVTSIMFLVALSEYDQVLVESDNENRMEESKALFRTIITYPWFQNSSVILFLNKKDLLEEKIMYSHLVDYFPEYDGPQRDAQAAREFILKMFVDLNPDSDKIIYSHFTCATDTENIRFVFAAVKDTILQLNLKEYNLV
Protocol: as §1, §2, §3

[2] = system: protein tyrosine kinase activity; assay: Protein tyrosine kinase ELISA on extracts of β-APP-transfected ES double-null cells mixed with PS-1-transfected DAMI cells; type: cell-based; details: 25 μg protein added, 0-20 min after mixing
Protocol: DAMI:ES cells: Equal numbers (0.5×10^6/ml) of β-APP 695 (Selkoe and Podlisny, 2002)-transfected ES double-null cells and PS-1 transfected DAMI cells were co-cultured at 37° C. for various times between 0-20 mins.
At several times between 0 and 20 min after mixing, an aliquot of each cell mixture was rapidly centrifuged, the culture medium was removed, and the cell pellet was suspended in 200 μl of extraction buffer (50 mM Tris, pH 8.0/150 mM NaCl/0.5% Nonidet-P40) containing protease inhibitors (1 mM 4-(2-aminoethyl) benzene sulfonyl fluoride hydrochloride (AEBSF)/1 μg/ml antipain/0.1 μg/ml pepstatin A/0.1 μg/ml leupeptin) and the phosphatase inhibitor sodium orthovanadate (0.1 mM). The mixture was sonicated with three bursts of 20 sec duration and then centrifuged. These extract supernatants were then used for Western blot and ELISA analyses as described below.
ELISAs Protein tyrosine kinase activity was measured by an Enzyme Linked Immunosorbent Assay (ELISA) using a tyrosine kinase assay kit (Upstate Biotechnology). A biotinylated substrate peptide containing tandem repeats of Poly (Glu4-Tyr) was incubated with supernatants of extracts of transfected cells mixed for different times ([…]) in the presence of non-radioactive ATP and a Mn^2+/Mg^2+ co-factor cocktail according to the manufacturer's protocols. A phosphotyrosine specific mouse monoclonal antibody (4G10) conjugated to horseradish peroxidase was used to detect the phosphorylated substrate by ELISA.
ES double-null cells transfected with β-APP were mixed with DAMI cells transfected with PS-1, and were co-cultured for various times between 0-20 min, using cell densities that ensured cell-cell contact. ELISA assays were then carried out on cell extracts to measure protein tyrosine kinase activity. […]

Gαo [3] = assay: 35S-GTPγS incorporation after addition of β-APPs to cell cultures, immunoprecipitation with Gαo antibodies; type: cell-based, mouse
Protocol: In addition, water-soluble β-APP ectodomain itself (B-APPs), when added to cultures of PS-1-only cells, could also activate G-proteins in a dose-dependent manner. β-APPs was partially purified from conditioned media of baculovirus cultures over-expressing human β-APP. The final product (FIG. 18b, lane 1) had, in addition to β-APP, three major contaminating bands at 81 kDa, 55 kDa and 31 kDa that co-purified with the β-APP ectodomain. This partially purified β-APPs preparation was added in increasing amounts to PS-1-only APP^−/− fibroblasts. After 15 mins the cells from each well were harvested in extraction buffer, and detergent extracts (each containing 100 μg protein) were treated with ^35S-GTPγS. Activation of Gαo was assayed after immunoprecipitation of the activated ^35S-GTPγS-Gαo with the Gαo-specific antibodies. […] Furthermore, when partially purified β-APPs was added to untransfected ES (PS^−/−) cells, no increase in G-protein activation was observed by ^35S-GTPγS assays (FIG. 18A, curve 5), further implicating PS as a receptor for the β-APP ligand in the Gαo activation.
To confirm that it was indeed the β-APPs in the partially purified β-APPs preparation that was the ligand responsible for G-protein activation, and not one of the contaminants, β-APPs was removed from the preparation by treatment with MAb 348 to β-APP (see FIG. 18C, lane 2). This β-APPs-depleted solution at the same concentrations used for the non-depleted preparation, was added to the PS-1-only cells, which were then treated exactly as described above. […] In contrast, the β-APPs preparation similarly treated with an irrelevant IgG when added to PS-1-only cells, gave results that resembled those obtained with the untreated samples (FIG. 18A, curve 2).
(§4) ^35S-GTPγS Assays: Extract (100 μg of total protein) was mixed with an equal volume of GTPγS Buffer B (50 mM HEPES/NaOH pH 7.4, 40 μM GDP, 50 mM MgCl2, 100 mM NaCl) and reacted with 50 nM ^35S-GTPγS (1250 Ci/mmol, Perkin Elmer, Waltham, Mass.) for 60 min at RT. The reaction was stopped with 10× Stopping buffer (100 mM Tris-HCl, pH 8, 25 mM MgCl2, 100 mM NaCl, 20 mM GTP) followed by immunoprecipitation of the ^35S-GTPγS-Gαo complex with Ab against a particular Gα. The Ab-protein complex was absorbed to Protein A/G agarose for 90 min at RT and washed. The agarose beads were suspended in scintillation fluid (CytoScint, ICN) (5 ml) and counted in a Beckman Coulter LS 6000 SC scintillation counter for 3 min.

G-protein Go = assay: 35S-GTPγS incorporation after addition of β-APPs to solubilized rat hippocampal membranes; type: biochemical
Protocol: Because the results so far described were obtained using only cultured cells transfected with human PS, binding of the endogenous rat PS proteins with rat Gαo present in rat hippocampal membranes was examined. […]
as §4, §2

Q: “DEEEDEEL [Peptide 8, 8-mer of the PS-1 N-terminal domain]” was tested. Which “cell-cell interaction and Aβ production, ELISA” value (Aβ production) did it give?
A: The value was “inhibits”.

Q: “DEEEDEELTLKYGAK [Peptide 7, 15-mer of the PS-1 N-terminal domain]” was tested. Which “cell-cell interaction and Aβ production, ELISA” value (Aβ production) did it give?
A: Its value is “inhibits”.

Q: For “KSVSFYTRKDGQLIYT [ic1(1-16), PS-1 cytoplasmic loop 1 peptide]”, which “stimulation of 35S-GTPγS binding to Gs” value (Gαs) is on record?
A: The value was “not”.

Q: With “KYLPE [ic3, PS-1 cytoplasmic loop 3 peptide]” as the substance, how does the “stimulation of 35S-GTPγS binding to Gs” value (Gαs) read?
A: The value was “only background stimulation”.

Q: What about the “stimulation of 35S-GTPγS binding to Go” value (Gαo [1]) of the same substance?
A: The value was “robust stimulation”.

Q: What about the “increase in activation of 35S-GTPγS binding over samples without peptide” value (Gαo [1]; rat membranes) of the same substance?
A: Its value is 200%.

Q: What about the “stimulation of 35S-GTPγS binding to Gq” value (Gαq) of the same substance?
A: The value was “robust stimulation”.

Q: Which “transient increase in protein tyrosine kinase activity after cell mixing” value (“transient increase” below) [2] does the source give for “N-terminal domain of PS-1 fused to FLAG: fusion protein with FLAG attached at the N-terminus of the PS-1 N-terminal domain, grown in DH5α bacteria” here?
A: The value was “specifically inhibited; also recorded: none of the increases”.

Q: What about the “transient increase” value ([2]; listed as FLAG reporter fused to the N-terminal domain of PS-1) of the same substance?
A: Its value is “no increase”.

Q: Which “stimulation of 35S-GTPγS binding to Gs” value (Gαs) does the source give for “PFTEDTETVGQRALHS [ic1(17-32), PS-1 cytoplasmic loop 1 peptide]” here?
A: Its value is “induced stimulation”.

Q: With “RRSLGHPEPLSNGRP [Peptide 4, 15-mer of the PS-1 N-terminal domain]” as the substance, how does the “cell-cell interaction and Aβ production, ELISA” value (Aβ production) read?
A: Its value is “inhibits”.

Q: How did the “stimulation of 35S-GTPγS binding to Gs” value (Gαs) turn out when “TDYLVQPFMDQLAFHQFYI [C(21-39), remaining 19 amino acids of the PS-1 cytoplasmic C-terminal tail]” was run?
A: Its value is “induced stimulation”.

Q: What about the “stimulation of 35S-GTPγS binding to Go” value (Gαo [1]; listed as COOH-terminal peptide corresponding to residues 21-39) of the same substance?
A: The value was “failed to activate; also recorded: no detectable Go activation”.

Q: And the “stimulation of 35S-GTPγS binding to Gq” value (Gαq)?
A: Its value is “robust stimulation”.

Q: Which “stimulation of 35S-GTPγS binding to Gs” value (Gαs) does the source give for “VFKTYNVAVD [ic2, PS-1 cytoplasmic loop 2 peptide]” here?
A: Its value is “only background stimulation”.

Q: What about the “stimulation of 35S-GTPγS binding to Go” value (Gαo [1]) of the same substance?
A: The value was “only background stimulation”.

Q: What about the “stimulation of 35S-GTPγS binding to Gq” value (Gαq) of the same substance?
A: Its value is “only background stimulation”.

Q: With “β-APPs: water-soluble β-APP ectodomain, baculovirus-derived, purified or partially purified” as the substance, how does the 35S-GTPγS incorporation (Gαo [3]; PS-1-only APP-/- fibroblast cultures, increasing β-APPs, 15 mins) read?
A: Its 35S-GTPγS incorporation is “increased ^35S-GTPgS incorporation in a dose-dependent manner”.

Q: What about the “maximum increase in incorporation of 35S-GTPγS” value (Gαo [3]; PS-1-only APP-/- fibroblasts, 120 pM β-APPs) of the same substance?
A: The value was “over 500%”.

Q: What about the 35S-GTPγS incorporation (Gαo [3]; untransfected APP-/- fibroblasts expressing only endogenous PS) of the same substance?
A: The 35S-GTPγS incorporation was “modest G-protein activation; also recorded: only modest increases”.

Q: What about the 35S-GTPγS incorporation (Gαo [3]; untransfected ES (PS-/-) cells) of the same substance?
A: Its 35S-GTPγS incorporation is “no increase; also recorded: no significant increases”.

Q: And the “transient increase” value [2]?
A: Its value is “specifically inhibited; also recorded: no increase; also recorded: none of the increases”.

Q: What about the 35S-GTPγS incorporation (G-protein Go; PS-depleted rat membranes (pre-treated with polyclonal Ab to PS-1 and PS-2)) of the same substance?
A: The 35S-GTPγS incorporation was “did not occur; also recorded: no increase”.

Q: What about the “incorporation of 35S-GTPγS greater than untreated samples” value (G-protein Go; rat hippocampal membranes, 80 pM β-APPs) of the same substance?
A: Its value is 100%.

Q: What about the “increase in G-protein Go activation” value (G-protein Go; rat hippocampal membranes, 400 pM β-APPs) of the same substance?
A: Its value is “greater than 600%”.

Q: And the 35S-GTPγS incorporation (G-protein Go; solubilized rat hippocampal membranes (100 μg), 0-400 pM β-APPs, 15 min)?
A: The 35S-GTPγS incorporation was “increased ^35S-GTPgS incorporation in a dose-dependent manner”.
